The test system of data set [1] is HT-1080. In words: Cytotoxicity against human HT1080 cells after 72 hrs. The class given is functional. To be noted: for CC50: HT-1080, 72 h, read-out: TD50 (the source's name).
Data set [2] concerns MG-22A. Nature of the data set: Cytotoxicity against mouse MG22A cells after 72 hrs. The class given is functional. Conditions: read-out: TD50 (the source's name).
In data set [3] the test system is MG-22A. Nature of the data set: Effect on nitric oxide production in mouse MG22A cells at 100 ug/ml by crystal violet coloration assay. It counts as functional.
The nature of data set [4]: Cytotoxicity against mouse NIH3T3 cells after 72 hrs. The class given is cell-based. To be noted: read-out: TD50.
The subject of data set [5] is HT-1080. In words: Effect on cell morphology in human HT1080 cells after 72 hrs. The class given is functional, cell-based.
The subject of data set [6] is HT-1080. In words: Effect on nitric oxide production in human HT1080 cells at 100 ug/ml by crystal violet coloration assay. It counts as functional.
In data set [7] the test system is CCRF S-180. In words: Antitumor activity against S180 cells inoculated in ICR mouse assessed as inhibition of tumor growth at 10 mg/kg, ip after 9 days. It counts as functional. To be noted: for inhibition in vivo at 10 mg/kg: CCRF S-180, ip, 216 h, route intraperitoneal.
Data set [8] concerns Mus musculus. Nature of the data set: Toxicity in ICR mouse assessed as body weight at 10 mg/kg, ip after 9 days. The class given is organism-based. Also on record: dose 10 mg/kg, route intraperitoneal. To be noted: in vivo, 216 h.
In data set [9] the test system is HT-1080. In words: Induction of apoptosis in human HT1080 cells after 72 hrs. The class given is functional, cell-based.
Data set [10] concerns CCRF S-180. Nature of the data set: Antitumor activity against S180 cells inoculated in ICR mouse assessed as inhibition of tumor growth at 2 mg/kg, ip after 2 days. Conditions: CCRF S-180, ip, 48 h, route intraperitoneal. The class given is functional.
Data set [11] concerns MG-22A. In words: Induction of apoptosis in mouse MG22A cells after 72 hrs. The class given is functional, cell-based.
For data set [12], the system named is Mus musculus. In words: Toxicity in ICR mouse assessed as body weight at 2 mg/kg, ip after 2 days. The class given is organism-based. Set-up: dose 2 mg/kg, route intraperitoneal. To be noted: in vivo, 48 h.
Data set [13] deals with Mus musculus. Nature of the data set: Toxicity in ICR mouse assessed as body weight at 10 mg/kg, ip after 8 days. The class given is organism-based. Also on record: dose 10 mg/kg, route intraperitoneal. Conditions: in vivo, 192 h.
In data set [14] the test system is CCRF S-180. Nature of the data set: Antitumor activity against S180 cells inoculated in ICR mouse assessed as inhibition of tumor growth at 10 mg/kg, ip after 8 days. The class given is functional. To be noted: CCRF S-180, ip, 192 h, route intraperitoneal.

In brackets after ≈: the same amount, converted by molar mass. Activity calls are given as the source filed them. The rule behind the calls is not given here.

One may read the inhibition in vivo as the change of the read-out against control, counted positive when it falls. As for `Cc1nn[se]c1C(=O)N[C@H](C)c1ccccc1`, the values for the CC50 in [1] and in data set [2] were 100 µg/mL (≈ 340 µM) and 29 µg/mL (≈ 98.6 µM), respectively. Besides, the Activity in data set [3] is 400%; in data set [6], 17%; in data set [8], 3%. Besides, the CC50 at 72 h in data set [4] is 195 µg/mL (≈ 663 µM). For the same molecule, the result in data set [5] was inactive. Also, in [7], the inhibition in vivo at 10 mg/kg came out at 20%.
Regarding `Cc1nn[se]c1C(=O)N(C)C`, the result in [9] and in data set [11] was Active. Moreover, the Activity result was “Not toxic” in data set [1], 63% in [3], 10% in data set [6] and 17% in data set [12]. The CC50 in data set [2] worked out at 35 µg/mL (≈ 160 µM). The inhibition in vivo at 2 mg/kg in data set [10] worked out at 58%. Moreover, in data set [4], the CC50 at 72 h came out at 351 µg/mL (≈ 1610 µM).
`Cc1nn[se]c1C(=O)N(C(C)C)C(C)C`: the Activity result in data set [1] is “Not toxic”; in data set [3], 200%; in data set [6], 29%; in [8], 0%. Besides, in [2], the CC50 stood at 31 µg/mL (≈ 113 µM). Further, the CC50 at 72 h in [4] turned out to be 718 µg/mL (≈ 2620 µM). The inhibition in vivo at 10 mg/kg in [7] was -32%.
Turning to `Cc1nn[se]c1C(=O)N[C@@H](C)c1ccccc1`, the CC50 is 31 µg/mL (≈ 105 µM) in [1] and 32 µg/mL (≈ 109 µM) in data set [2]. Moreover, the Activity in [13] was found to be 0%; in data set [3] it was 200%; in data set [6], 300%. For the same molecule, in data set [14], the inhibition in vivo at 10 mg/kg was -23%. The CC50 at 72 h in [4] was found to be 407 µg/mL (≈ 1380 µM). The outcome in data set [5] was Active.
`Cc1nn[se]c1C(=O)N1CCCCC1`: the CC50 in data set [1] was found to be 31 µg/mL (≈ 120 µM); in data set [2], 27 µg/mL (≈ 105 µM). In addition, the Activity in [3] stood at 400%; in [6], 100%; in data set [8], 8%. In addition, in data set [4], the CC50 at 72 h turned out to be 123 µg/mL (≈ 476 µM). In addition, the inhibition in vivo at 10 mg/kg in data set [7] came to 71%.
`Cc1nn[se]c1C(=O)N1CCCC1`: the CC50 in data set [1] turned out to be 19 µg/mL (≈ 77.8 µM); in data set [2], 33 µg/mL (≈ 135 µM). Besides, the values for the Activity in data set [3], in data set [6] and in [8] were 350%, 350% and 23%, respectively. In addition, in data set [4], the CC50 at 72 h worked out at 214 µg/mL (≈ 876 µM). In addition, the outcome in data set [11] was Active. Also, in data set [7], the inhibition in vivo at 10 mg/kg came out at 85%.
Consider `Cc1nn[se]c1C(=O)N1CCOCC1`, for which the Activity entry is “Not toxic” in data set [1]; 250% in data set [3]; 11% in data set [6]; “Non-toxic” in data set [7]; 8% in data set [8]. For the same molecule, the CC50 in data set [2] stood at 34 µg/mL (≈ 131 µM). In [4], the CC50 at 72 h came to 280 µg/mL (≈ 1080 µM).

Source of the values: ChEMBL document CHEMBL1140612, “4-Methyl-1,2,3-selenadiazole-5-carboxylic acid amides: antitumor action and cytotoxic effect correlation” (Eur J Med Chem, 2007).
